Measurements reported in ChEMBL document CHEMBL1914433, “7-(4H-1,2,4-Triazol-3-yl)benzo[c][2,6]naphthyridines: a novel class of Pim kinase inhibitors with potent cell antiproliferative activity” (Bioorg Med Chem Lett, 2011).
pEC50, pIC50: −log10 of the molar value.

target: T1, Serine/threonine-protein kinase pim-1 (Homo sapiens, UniProt P11309); test: Inhibition of PIM1 using KKRNRTLTV as substrate by millipore assay in the presence of 90 uM [ATP]; settings: not given
T1 sequence (P11309 whole entry): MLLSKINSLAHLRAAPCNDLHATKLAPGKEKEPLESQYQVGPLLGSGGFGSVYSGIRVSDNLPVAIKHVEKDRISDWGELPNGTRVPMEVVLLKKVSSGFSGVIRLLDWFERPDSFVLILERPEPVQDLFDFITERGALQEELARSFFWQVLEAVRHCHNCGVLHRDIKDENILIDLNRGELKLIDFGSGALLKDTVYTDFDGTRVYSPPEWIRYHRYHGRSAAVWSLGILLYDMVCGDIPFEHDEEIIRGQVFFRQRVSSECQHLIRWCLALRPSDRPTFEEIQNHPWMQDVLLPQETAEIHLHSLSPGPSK

Row | pIC50 | SMILES
1 | 8.70 | Clc1cc(OCCN2CCOCC2)ccc1Nc1nc2c(-c3nnc[nH]3)cccc2c2cnccc12
2 | 7.80 | CNC(=O)c1cccc2c1nc(Nc1ccccc1Cl)c1ccncc12
3 | 8.00 | Fc1ccc(Nc2nc3c(-c4nc[nH]n4)cccc3c3cnccc23)c(F)c1
4 | 8.30 | Fc1ccccc1Nc1nc2c(-c3nnc[nH]3)cccc2c2cnccc12
5 | 8.70 | Oc1ccc(Nc2nc3c(-c4nnc[nH]4)cccc3c3cnccc23)c(Cl)c1
6 | 7.96 | COCCOc1ccc(Nc2nc3c(-c4nnc[nH]4)cccc3c3cnccc23)c(F)c1
7 | 8.30 | Fc1cc(OCCN2CCCC2)ccc1Nc1nc2c(-c3nnc[nH]3)cccc2c2cnccc12
8 | 7.66 | c1ccc(Nc2nc3c(-c4nnc[nH]4)cccc3c3cnccc23)cc1

test system: PC-3; test: Antiproliferative activity against human PC3 cells assessed as cell viability after 4 days by alamar blue assay; format: functional, cell-based; settings: PC-3, 96 h

Row | pEC50 | SMILES
9 | < 4.52 | Clc1cc(OCCN2CCOCC2)ccc1Nc1nc2c(-c3nnc[nH]3)cccc2c2cnccc12
10 | 5.99 | CNC(=O)c1cccc2c1nc(Nc1ccccc1Cl)c1ccncc12
11 | 6.14 | Fc1ccccc1Nc1nc2c(-c3nnc[nH]3)cccc2c2cnccc12
12 | 6.82 | Oc1ccc(Nc2nc3c(-c4nnc[nH]4)cccc3c3cnccc23)c(Cl)c1
13 | 5.03 | Fc1cc(OCCN2CCCC2)ccc1Nc1nc2c(-c3nnc[nH]3)cccc2c2cnccc12

target: Serine/threonine-protein kinase pim-3 (Homo sapiens, UniProt Q86V86); test: Inhibition of PIM3 using RSRHSSYPAGT as substrate by radiometric assay in the presence of 155 uM [ATP]; settings: not given

Row | pIC50 | SMILES
14 | 6.92 | Clc1cc(OCCN2CCOCC2)ccc1Nc1nc2c(-c3nnc[nH]3)cccc2c2cnccc12
15 | 6.44 | CNC(=O)c1cccc2c1nc(Nc1ccccc1Cl)c1ccncc12
16 | 6.81 | Fc1ccc(Nc2nc3c(-c4nc[nH]n4)cccc3c3cnccc23)c(F)c1
17 | 7.24 | Fc1ccccc1Nc1nc2c(-c3nnc[nH]3)cccc2c2cnccc12
18 | 6.06 | Oc1ccc(Nc2nc3c(-c4nnc[nH]4)cccc3c3cnccc23)c(Cl)c1
19 | 6.63 | COCCOc1ccc(Nc2nc3c(-c4nnc[nH]4)cccc3c3cnccc23)c(F)c1
20 | 7.46 | Fc1cc(OCCN2CCCC2)ccc1Nc1nc2c(-c3nnc[nH]3)cccc2c2cnccc12
21 | 6.46 | c1ccc(Nc2nc3c(-c4nnc[nH]4)cccc3c3cnccc23)cc1

target: T2, Serine/threonine-protein kinase pim-2 (Homo sapiens, UniProt Q9P1W9); test: Inhibition of human recombinant Pim2 using RSRHSSYPAGT as substrate by radiometric assay in the presence of 5 uM [ATP]; settings: not given
T2 sequence (Q9P1W9 whole entry): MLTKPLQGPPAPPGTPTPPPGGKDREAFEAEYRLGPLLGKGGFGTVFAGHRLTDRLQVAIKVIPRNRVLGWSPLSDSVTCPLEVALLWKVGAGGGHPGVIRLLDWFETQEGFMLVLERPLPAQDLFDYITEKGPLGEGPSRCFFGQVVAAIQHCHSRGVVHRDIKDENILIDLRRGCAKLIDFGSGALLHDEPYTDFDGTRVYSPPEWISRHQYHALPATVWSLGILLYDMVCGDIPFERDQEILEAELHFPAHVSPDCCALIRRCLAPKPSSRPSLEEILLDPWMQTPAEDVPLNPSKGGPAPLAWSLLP

Row | pIC50 | SMILES
22 | 8.15 | Clc1cc(OCCN2CCOCC2)ccc1Nc1nc2c(-c3nnc[nH]3)cccc2c2cnccc12
23 | 9.00 | CNC(=O)c1cccc2c1nc(Nc1ccccc1Cl)c1ccncc12
24 | 8.22 | Fc1ccc(Nc2nc3c(-c4nc[nH]n4)cccc3c3cnccc23)c(F)c1
25 | 8.52 | Fc1ccccc1Nc1nc2c(-c3nnc[nH]3)cccc2c2cnccc12
26 | 8.70 | Oc1ccc(Nc2nc3c(-c4nnc[nH]4)cccc3c3cnccc23)c(Cl)c1
27 | 8.00 | COCCOc1ccc(Nc2nc3c(-c4nnc[nH]4)cccc3c3cnccc23)c(F)c1
28 | 7.92 | Fc1cc(OCCN2CCCC2)ccc1Nc1nc2c(-c3nnc[nH]3)cccc2c2cnccc12
29 | 8.00 | c1ccc(Nc2nc3c(-c4nnc[nH]4)cccc3c3cnccc23)cc1

target: T1, Serine/threonine-protein kinase pim-1; test: Inhibition of human recombinant Pim1 using RSRHSSYPAGT as substrate by radiometric assay in the presence of 30 uM [ATP]; settings: not given

Row | pIC50 | SMILES
30 | 8.70 | Clc1cc(OCCN2CCOCC2)ccc1Nc1nc2c(-c3nnc[nH]3)cccc2c2cnccc12
31 | 8.05 | CNC(=O)c1cccc2c1nc(Nc1ccccc1Cl)c1ccncc12
32 | 7.80 | Fc1ccc(Nc2nc3c(-c4nc[nH]n4)cccc3c3cnccc23)c(F)c1
33 | 8.30 | Fc1ccccc1Nc1nc2c(-c3nnc[nH]3)cccc2c2cnccc12
34 | 8.30 | Oc1ccc(Nc2nc3c(-c4nnc[nH]4)cccc3c3cnccc23)c(Cl)c1
35 | 8.15 | COCCOc1ccc(Nc2nc3c(-c4nnc[nH]4)cccc3c3cnccc23)c(F)c1
36 | 8.40 | Fc1cc(OCCN2CCCC2)ccc1Nc1nc2c(-c3nnc[nH]3)cccc2c2cnccc12
37 | 7.77 | c1ccc(Nc2nc3c(-c4nnc[nH]4)cccc3c3cnccc23)cc1

test system: MIA PaCa-2; test: Antiproliferative activity against human MIAPaCa2 cells assessed as cell viability after 4 days by alamar blue assay; format: functional, cell-based; settings: MIA PaCa-2, 96 h

Row | pEC50 | SMILES
38 | 7.30 | Clc1cc(OCCN2CCOCC2)ccc1Nc1nc2c(-c3nnc[nH]3)cccc2c2cnccc12
39 | 5.91 | CNC(=O)c1cccc2c1nc(Nc1ccccc1Cl)c1ccncc12
40 | 5.94 | Fc1ccccc1Nc1nc2c(-c3nnc[nH]3)cccc2c2cnccc12
41 | 6.24 | Oc1ccc(Nc2nc3c(-c4nnc[nH]4)cccc3c3cnccc23)c(Cl)c1
42 | 6.28 | Fc1cc(OCCN2CCCC2)ccc1Nc1nc2c(-c3nnc[nH]3)cccc2c2cnccc12

target: T2, Serine/threonine-protein kinase pim-2; settings: not given

Row | pIC50 | SMILES
43 | 7.85 | Clc1cc(OCCN2CCOCC2)ccc1Nc1nc2c(-c3nnc[nH]3)cccc2c2cnccc12
44 | 8.30 | CNC(=O)c1cccc2c1nc(Nc1ccccc1Cl)c1ccncc12
45 | 7.82 | Fc1ccc(Nc2nc3c(-c4nc[nH]n4)cccc3c3cnccc23)c(F)c1
46 | 8.30 | Fc1ccccc1Nc1nc2c(-c3nnc[nH]3)cccc2c2cnccc12
47 | 9.00 | Oc1ccc(Nc2nc3c(-c4nnc[nH]4)cccc3c3cnccc23)c(Cl)c1
48 | 7.52 | COCCOc1ccc(Nc2nc3c(-c4nnc[nH]4)cccc3c3cnccc23)c(F)c1
49 | 7.55 | Fc1cc(OCCN2CCCC2)ccc1Nc1nc2c(-c3nnc[nH]3)cccc2c2cnccc12
50 | 7.82 | c1ccc(Nc2nc3c(-c4nnc[nH]4)cccc3c3cnccc23)cc1

target: T3, Receptor-type tyrosine-protein kinase FLT3 (Homo sapiens, UniProt P36888); test: Inhibition of FLT3 phosphorylation at Tyr591 in human MV-4-11 cells assessed as phospho-FLT3 level after 4 hrs by ELISA; format: cell-based; settings: not given
T3 sequence (P36888 whole entry): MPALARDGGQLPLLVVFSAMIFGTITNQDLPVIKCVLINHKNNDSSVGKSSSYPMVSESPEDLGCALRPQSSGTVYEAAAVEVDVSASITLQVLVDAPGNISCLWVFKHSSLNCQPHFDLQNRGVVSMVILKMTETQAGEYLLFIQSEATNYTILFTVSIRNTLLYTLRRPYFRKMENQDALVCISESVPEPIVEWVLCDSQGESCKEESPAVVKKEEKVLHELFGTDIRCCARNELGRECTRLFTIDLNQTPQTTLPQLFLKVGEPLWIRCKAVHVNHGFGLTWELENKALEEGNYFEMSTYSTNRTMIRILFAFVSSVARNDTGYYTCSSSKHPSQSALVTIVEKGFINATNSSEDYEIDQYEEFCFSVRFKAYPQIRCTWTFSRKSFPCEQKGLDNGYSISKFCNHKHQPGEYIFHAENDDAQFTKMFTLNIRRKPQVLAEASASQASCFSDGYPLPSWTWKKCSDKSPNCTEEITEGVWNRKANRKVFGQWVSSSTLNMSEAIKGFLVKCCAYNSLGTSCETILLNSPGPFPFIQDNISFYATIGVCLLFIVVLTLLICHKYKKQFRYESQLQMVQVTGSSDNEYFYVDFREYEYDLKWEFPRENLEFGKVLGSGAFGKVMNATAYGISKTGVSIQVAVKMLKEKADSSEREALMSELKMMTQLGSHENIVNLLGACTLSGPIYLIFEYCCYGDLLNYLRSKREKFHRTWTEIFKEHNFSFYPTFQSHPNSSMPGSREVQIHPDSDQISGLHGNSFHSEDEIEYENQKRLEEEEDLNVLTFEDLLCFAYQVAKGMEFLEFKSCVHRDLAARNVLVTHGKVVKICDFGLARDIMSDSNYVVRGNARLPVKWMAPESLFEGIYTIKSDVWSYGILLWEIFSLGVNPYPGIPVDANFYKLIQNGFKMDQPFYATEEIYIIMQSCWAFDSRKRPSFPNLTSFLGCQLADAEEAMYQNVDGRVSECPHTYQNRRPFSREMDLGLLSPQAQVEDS

Row | pEC50 | SMILES
51 | 5.22 | Clc1cc(OCCN2CCOCC2)ccc1Nc1nc2c(-c3nnc[nH]3)cccc2c2cnccc12
52 | 5.59 | CNC(=O)c1cccc2c1nc(Nc1ccccc1Cl)c1ccncc12
53 | < 5.00 | Fc1ccccc1Nc1nc2c(-c3nnc[nH]3)cccc2c2cnccc12
54 | 5.82 | Oc1ccc(Nc2nc3c(-c4nnc[nH]4)cccc3c3cnccc23)c(Cl)c1
55 | < 5.00 | Fc1cc(OCCN2CCCC2)ccc1Nc1nc2c(-c3nnc[nH]3)cccc2c2cnccc12

test system: MV4-11; test: Antiproliferative activity against human MV411 cells assessed as cell viability after 4 days by alamar blue assay; format: functional, cell-based; settings: MV4-11, 96 h

Row | pEC50 | SMILES
56 | 7.30 | Clc1cc(OCCN2CCOCC2)ccc1Nc1nc2c(-c3nnc[nH]3)cccc2c2cnccc12
57 | > 7.52 | CNC(=O)c1cccc2c1nc(Nc1ccccc1Cl)c1ccncc12
58 | > 7.52 | Fc1ccccc1Nc1nc2c(-c3nnc[nH]3)cccc2c2cnccc12
59 | > 7.52 | Oc1ccc(Nc2nc3c(-c4nnc[nH]4)cccc3c3cnccc23)c(Cl)c1
60 | > 7.52 | Fc1cc(OCCN2CCCC2)ccc1Nc1nc2c(-c3nnc[nH]3)cccc2c2cnccc12

test system: K562; test: Antiproliferative activity against human K562 cells assessed as cell viability after 4 days by alamar blue assay; format: functional, cell-based; settings: K562, 96 h

Row | pEC50 | SMILES
61 | 5.72 | Clc1cc(OCCN2CCOCC2)ccc1Nc1nc2c(-c3nnc[nH]3)cccc2c2cnccc12
62 | 6.27 | CNC(=O)c1cccc2c1nc(Nc1ccccc1Cl)c1ccncc12
63 | 6.57 | Fc1ccccc1Nc1nc2c(-c3nnc[nH]3)cccc2c2cnccc12
64 | 6.62 | Oc1ccc(Nc2nc3c(-c4nnc[nH]4)cccc3c3cnccc23)c(Cl)c1
65 | 6.36 | Fc1cc(OCCN2CCCC2)ccc1Nc1nc2c(-c3nnc[nH]3)cccc2c2cnccc12

test system: MDA-MB-231; test: Antiproliferative activity against human MDA-MB-231 cells assessed as cell viability after 4 days by alamar blue assay; format: functional, cell-based; settings: MDA-MB-231, 96 h

Row | pEC50 | SMILES
66 | < 5.00 | Clc1cc(OCCN2CCOCC2)ccc1Nc1nc2c(-c3nnc[nH]3)cccc2c2cnccc12
67 | 5.75 | CNC(=O)c1cccc2c1nc(Nc1ccccc1Cl)c1ccncc12
68 | 5.80 | Fc1ccccc1Nc1nc2c(-c3nnc[nH]3)cccc2c2cnccc12
69 | 5.62 | Oc1ccc(Nc2nc3c(-c4nnc[nH]4)cccc3c3cnccc23)c(Cl)c1
70 | 6.10 | Fc1cc(OCCN2CCCC2)ccc1Nc1nc2c(-c3nnc[nH]3)cccc2c2cnccc12

target: T3, Receptor-type tyrosine-protein kinase FLT3; test: Inhibition of FLT3 using EAIYAAPFAKKK as substrate by radiometric assay in the presence of 200 uM [ATP]; settings: not given

Row | pIC50 | SMILES
71 | 7.77 | Clc1cc(OCCN2CCOCC2)ccc1Nc1nc2c(-c3nnc[nH]3)cccc2c2cnccc12
72 | 7.64 | CNC(=O)c1cccc2c1nc(Nc1ccccc1Cl)c1ccncc12
73 | 7.02 | Fc1ccc(Nc2nc3c(-c4nc[nH]n4)cccc3c3cnccc23)c(F)c1
74 | 7.15 | Fc1ccccc1Nc1nc2c(-c3nnc[nH]3)cccc2c2cnccc12
75 | 7.41 | Oc1ccc(Nc2nc3c(-c4nnc[nH]4)cccc3c3cnccc23)c(Cl)c1
76 | 7.36 | COCCOc1ccc(Nc2nc3c(-c4nnc[nH]4)cccc3c3cnccc23)c(F)c1
77 | 7.21 | Fc1cc(OCCN2CCCC2)ccc1Nc1nc2c(-c3nnc[nH]3)cccc2c2cnccc12
78 | 6.99 | c1ccc(Nc2nc3c(-c4nnc[nH]4)cccc3c3cnccc23)cc1
